Experimental data reported in patent US9359308B2, “Pyrazine kinase inhibitors” (Portola Pharmaceuticals, Inc., priority 2011, dated 2016).

biological target: T1, full length active recombinant SYK enzyme (Homo sapiens, UniProt P43405); test: Inhibition of Syk tyrosine phosphorylation activity (LANCE TR-FRET kinase assay); assay type: biochemical; conditions: activity in the Syk assays, class symbols
T1 construct: full length active recombinant SYK enzyme (Millipore, Calif.); purchased Millipore
Method in brief: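 1 nM full-length active recombinant SYK phosphorylated 550 nM biotin-DEEDYESP-OH with 100 μM ATP in 50 mM Tris pH 7.5, 5 mM MgCl2, 1 mM DTT and 3% DMSO for 1 h at room temperature. After EDTA quench, Eu-anti-phosphotyrosine/SA-APC TR-FRET was read after 1 h. IC50s came from non-linear regression.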

SMILES	IC50 [nM]
CC(C)[C@@H](Nc1cnc(C(N)=O)c(Nc2cncc(Cl)c2)n1)C(N)=O [Example 222, (R)-5-(1-amino-3-methyl-1-oxobutan-2-ylamino)-3-(5-chloropyridin-3-ylamino)pyrazine-2-carboxamide]	10 to 100
CC[C@@H](Nc1cnc(C(N)=O)c(Nc2cncc(Cl)c2)n1)C(N)=O [Example 223, (R)-5-(1-amino-1-oxobutan-2-ylamino)-3-(5-chloropyridin-3-ylamino)pyrazine-2-carboxamide]	10 to 100
CCc1cc(Nc2nc(N[C@@H](C(N)=O)C(C)C)cnc2C(N)=O)sn1 [Example 224, (R)-5-(1-amino-3-methyl-1-oxobutan-2-ylamino)-3-(3-ethylisothiazol-5-ylamino)pyrazine-2-carboxamide]	1 to 10
CCc1cc(Nc2nc(N[C@H](CC3CC3)C(N)=O)cnc2C(N)=O)sn1 [Example 225, (R)-5-(1-amino-3-cyclopropyl-1-oxopropan-2-ylamino)-3-(3-ethylisothiazol-5-ylamino)pyrazine-2-carboxamide]	1 to 10
CCc1cc(Nc2nc(N[C@@H]3CCCC(F)(F)[C@@H]3N)cnc2C(N)=O)sn1 [Example 226, 5-((1R,2R)-2-amino-3,3-difluorocyclohexylamino)-3-(3-ethylisothiazol-5-ylamino)pyrazine-2-carboxamide]	10 to 100
NC(=O)c1ncc(N[C@@H]2CCCC(F)(F)[C@@H]2N)nc1Nc1cnc2cc(F)ccc2c1 [Example 227, 5-((1R,2R)-2-amino-3,3-difluorocyclohexylamino)-3-(7-fluoroquinolin-3-ylamino)pyrazine-2-carboxamide]	10 to 100
CC[C@@H](Nc1cnc(C(N)=O)c(Nc2cc(C(C)(C)C)ns2)n1)C(N)=O [Example 228, (R)-5-(1-amino-1-oxobutan-2-ylamino)-3-(3-tert-butylisothiazol-5-ylamino)pyrazine-2-carboxamide]	10 to 100
CC(C)(C)c1cc(Nc2nc(N[C@H](CC3CC3)C(N)=O)cnc2C(N)=O)sn1 [Example 229, (R)-5-(1-amino-3-cyclopropyl-1-oxopropan-2-ylamino)-3-(3-tert-butylisothiazol-5-ylamino)pyrazine-2-carboxamide]	10 to 100
CN1C(=O)COc2ccc(Nc3nc(N[C@@H]4CCCC(F)(F)[C@@H]4N)cnc3C(N)=O)cc21 [Example 230, 5-((1R,2R)-2-amino-3,3-difluorocyclohexylamino)-3-(4-methyl-3-oxo-3,4-dihydro-2H-benzo[b][1,4]oxazin-6-ylamino)pyrazine-2-carboxamide]	10 to 100
NC(=O)c1ncc(N[C@@H]2CCCC[C@@H]2N)nc1Nc1cc(C2CC2)no1 [Example 231, 5-((1R,2S)-2-aminocyclohexylamino)-3-(3-cyclopropylisoxazol-5-ylamino)pyrazine-2-carboxamide]	10 to 100
CC[C@@H](Nc1cnc(C(N)=O)c(Nc2cnc3ccc(F)cc3c2)n1)C(N)=O [Example 232, (R)-5-(1-amino-1-oxobutan-2-ylamino)-3-(6-fluoroquinolin-3-ylamino)pyrazine-2-carboxamide]	1 to 10
CC[C@@H](Nc1cnc(C(N)=O)c(Nc2cnc3cc(F)ccc3c2)n1)C(N)=O [Example 233, (R)-5-(1-amino-1-oxobutan-2-ylamino)-3-(7-fluoroquinolin-3-ylamino)pyrazine-2-carboxamide]	1 to 10
CC(C)(C)[C@@H](Nc1cnc(C(N)=O)c(Nc2cnc3ccc(F)cc3c2)n1)C(N)=O [Example 234, (R)-5-(1-amino-3,3-dimethyl-1-oxobutan-2-ylamino)-3-(6-fluoroquinolin-3-ylamino)pyrazine-2-carboxamide]	1 to 10
CC(C)(C)[C@@H](Nc1cnc(C(N)=O)c(Nc2ccc3cccnc3c2)n1)C(N)=O [Example 235, (R)-5-(1-amino-3,3-dimethyl-1-oxobutan-2-ylamino)-3-(quinolin-7-ylamino)pyrazine-2-carboxamide]	10 to 100
CCc1cc(Nc2nc(N[C@@H](C(N)=O)C(C)(C)C)cnc2C(N)=O)sn1 [Example 236, (R)-5-(1-amino-3,3-dimethyl-1-oxobutan-2-ylamino)-3-(3-ethylisothiazol-5-ylamino)pyrazine-2-carboxamide]	10 to 100
CC(C)(C)[C@@H](Nc1cnc(C(N)=O)c(Nc2cnc3cccnc3c2)n1)C(N)=O [Example 237, (R)-3-(1,5-naphthyridin-3-ylamino)-5-(1-amino-3,3-dimethyl-1-oxobutan-2-ylamino)pyrazine-2-carboxamide]	10 to 100
CC[C@@H](Nc1cnc(C(N)=O)c(Nc2cc(C3CC3)ns2)n1)C(N)=O [Example 238, (R)-5-(1-amino-1-oxobutan-2-ylamino)-3-(3-cyclopropylisothiazol-5-ylamino)pyrazine-2-carboxamide]	1 to 10
C[C@@H](Nc1cnc(C(N)=O)c(Nc2cc(C3CC3)ns2)n1)C(N)=O [Example 239, (R)-5-(1-amino-1-oxopropan-2-ylamino)-3-(3-cyclopropylisothiazol-5-ylamino)pyrazine-2-carboxamide]	1 to 10
CC[C@@H](Nc1cnc(C(N)=O)c(Nc2cc(C(C)C)ns2)n1)C(N)=O [Example 240, (R)-5-(1-amino-1-oxobutan-2-ylamino)-3-(3-isopropylisothiazol-5-ylamino)pyrazine-2-carboxamide]	10 to 100
CC(C)c1cc(Nc2nc(N[C@H](C)C(N)=O)cnc2C(N)=O)sn1 [Example 241, (R)-5-(1-amino-1-oxopropan-2-ylamino)-3-(3-isopropylisothiazol-5-ylamino)pyrazine-2-carboxamide]	1 to 10
NC(=O)c1ncc(N[C@@H]2CCCC(F)(F)[C@@H]2N)nc1Nc1cc(C2CC2)ns1 [Example 242, 5-((1R,2R)-2-amino-3,3-difluorocyclohexylamino)-3-(3-cyclopropylisothiazol-5-ylamino)pyrazine-2-carboxamide]	1 to 10

Results, then the molecule that gave them:

IC50 [nM]	SMILES
1 to 10	C[C@@H](Nc1cnc(C(N)=O)c(Nc2cnc3ccc(F)cc3c2)n1)C(N)=O [Example 243, (R)-5-(1-amino-1-oxopropan-2-ylamino)-3-(6-fluoroquinolin-3-ylamino)pyrazine-2-carboxamide]
1 to 10	CC(C)(C)[C@@H](Nc1cnc(C(N)=O)c(Nc2cc(C3CC3)ns2)n1)C(N)=O [Example 244, (R)-5-(1-amino-3,3-dimethyl-1-oxobutan-2-ylamino)-3-(3-cyclopropylisothiazol-5-ylamino)pyrazine-2-carboxamide]
1 to 10	CC(C)(C)C[C@@H](Nc1cnc(C(N)=O)c(Nc2cnc3cccnc3c2)n1)C(N)=O [Example 246, (R)-3-(1,5-naphthyridin-3-ylamino)-5-(1-amino-4,4-dimethyl-1-oxopentan-2-ylamino)pyrazine-2-carboxamide]
1 to 10	CC(C)(C)C[C@@H](Nc1cnc(C(N)=O)c(Nc2cncc(F)c2)n1)C(N)=O [Example 247, (R)-5-(1-amino-4,4-dimethyl-1-oxopentan-2-ylamino)-3-(5-fluoropyridin-3-ylamino)pyrazine-2-carboxamide]
1 to 10	CN(C)C(=O)c1cc(Nc2nc(N[C@@H]3CCCC[C@@H]3N)cnc2C(N)=O)sn1 [Example 248, 5-(6-((1R,2S)-2-aminocyclohexylamino)-3-carbamoylpyrazin-2-ylamino)-N,N-dimethylisothiazole-3-carboxamide]
100 to 1000	CC[C@@H](Nc1cnc(C(N)=O)c(Nc2cc(C(=O)N(C)C)ns2)n1)C(N)=O [Example 249, (R)-5-(6-(1-amino-1-oxobutan-2-ylamino)-3-carbamoylpyrazin-2-ylamino)-N,N-dimethylisothiazole-3-carboxamide]
1 to 10	NC(=O)c1ncc(N[C@@H]2CCCC[C@@H]2N)nc1Nc1cc(CO)ns1 [Example 250, 5-((1R,2S)-2-aminocyclohexylamino)-3-(3-(hydroxymethyl)isothiazol-5-ylamino)pyrazine-2-carboxamide]
10 to 100	CC[C@@H](Nc1cnc(C(N)=O)c(Nc2cc(CO)ns2)n1)C(N)=O [Example 251, (R)-5-(1-amino-1-oxobutan-2-ylamino)-3-(3-(hydroxymethyl)isothiazol-5-ylamino)pyrazine-2-carboxamide]
< 1	NC(=O)c1ncc(N[C@@H]2CCCC[C@@H]2N)nc1Nc1snc2sccc12 [Example 252, 5-((1R,2S)-2-aminocyclohexylamino)-3-(thieno[2,3-c]isothiazol-3-ylamino)pyrazine-2-carboxamide]
1 to 10	COc1cncc(Nc2nc(N[C@H](CC(C)(C)C)C(N)=O)cnc2C(N)=O)c1 [Example 253, (R)-5-(1-amino-4,4-dimethyl-1-oxopentan-2-ylamino)-3-(5-methoxypyridin-3-ylamino)pyrazine-2-carboxamide]
100 to 1000	CC[C@@H](Nc1cnc(C(N)=O)c(Nc2cc(CN3CCOCC3)ns2)n1)C(N)=O [Example 254, (R)-5-(1-amino-1-oxobutan-2-ylamino)-3-(3-(morpholinomethyl)isothiazol-5-ylamino)pyrazine-2-carboxamide]
10 to 100	NC(=O)c1ncc(N[C@@H]2CCCC[C@@H]2N)nc1Nc1cc(CN2CCOCC2)ns1 [Example 255, 5-((1R,2S)-2-aminocyclohexylamino)-3-(3-(morpholinomethyl)isothiazol-5-ylamino)pyrazine-2-carboxamide]
1 to 10	COc1cc(Nc2nc(N[C@H](CC(C)(C)C)C(N)=O)cnc2C(N)=O)ccn1 [Example 256, (R)-5-(1-amino-4,4-dimethyl-1-oxopentan-2-ylamino)-3-(2-methoxypyridin-4-ylamino)pyrazine-2-carboxamide]
10 to 100	CC[C@@H](Nc1cnc(C(N)=O)c(Nc2cc(COC)ns2)n1)C(N)=O [Example 257, (R)-5-(1-amino-1-oxobutan-2-ylamino)-3-(3-(methoxymethyl)isothiazol-5-ylamino)pyrazine-2-carboxamide]
